From US9994587B2, “HIV protease inhibitors” (priority 2014, dated 2018)

Molecular target: T1, wildtype HIV-1 protease (Human immunodeficiency virus type 1 group M subtype B, UniProt P04585)
T1 construct: preincubated with the HIV-1 protease (wild type) enzyme in assay buffer; made in house; host or cells: Escherichia coli
Experiment: Assay for inhibition of microbial expressed HIV protease (Pepcleav)
Type: biochemical
Conditions: wild type HIV-1 protease 20 pM, peptide substrate 400 micromolar, pH 5.5; mean of at least two independent experiments
Outline: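 E. coli-expressed enzyme preincubated with inhibitor 30 min at room temperature in 50 mM sodium acetate pH 5.5, 100 mM NaCl, 0.1% BSA, then 400 micromolar peptide substrate added with 20 picomolar protease (final), 1 h at 30° C. Product quantified by LC-MS/MS peak area after formic acid/indinavir quench.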

| Compound | IC50 |
| --- | --- |
| COC(=O)N[C@H](C(=O)Nc1c(CC[C@@H]2CNC[C@@H](CSc3ccc(Cl)cc3)O2)cc[nH]c1=O)C(c1ccccc1)c1ccccc1 [Example 87, N-(4-{2-[(2R,6S)-6-{[(4-chlorophenyl)sulfanyl]methyl}morpholin-2-yl]ethyl}-2-oxo-1,2-dihydropyridin-3-yl)-Nα-(methoxycarbonyl)-β-phenyl-L-phenylalaninamide] | 0.05 nM |
| N[C@H](C(=O)Nc1c(CC[C@@H]2CNC[C@@H](CSc3ccc(Cl)cc3)O2)cc[nH]c1=O)C(c1ccccc1)c1ccccc1 [Example 88, N-(4-{2-[(2R,6S)-6-{[(4-chlorophenyl)sulfanyl]methyl}morpholin-2-yl]ethyl}-2-oxo-1,2-dihydropyridin-3-yl)-β-phenyl-L-phenylalaninamide] | 0.04 nM |
| O=C(Nc1c(CC[C@@H]2CNC[C@@H](CSc3ccc(Cl)cc3)O2)cc[nH]c1=O)[C@@H](NCC(F)(F)F)C(c1ccccc1)c1ccccc1 [Example 89, N-(4-{2-[(2R,6S)-6-{[(4-chlorophenyl)sulfanyl]methyl}morpholin-2-yl]ethyl}-2-oxo-1,2-dihydropyridin-3-yl)-β-phenyl-Nα-(2,2,2-trifluoroethyl)-L-phenylalaninamide] | 12.3 nM |
| COC(=O)N[C@H](C(=O)Nn1c(CC[C@@H]2CNC[C@@H](COc3ccc(C#N)cc3)O2)cccc1=O)C(c1ccccc1)c1ccccc1 [Example 90, N-[6-(2-{(2R,6S)-6-[(4-cyanophenoxy)methyl]morpholin-2-yl}ethyl)-2-oxopyridin-1 (2H)-yl]-Nα-(methoxycarbonyl)-β-phenyl-L-phenylalaninamide] | 53.3 nM |
| N#Cc1cccc(SC[C@@H]2CNC[C@@H](CCc3c(F)cncc3NC(=O)[C@@H](N)C(c3ccc(F)cc3)c3ccc(F)cc3)O2)c1 [Example 102, N-(4-{2-[(2R,6S)-6-{[(3-cyanophenyl)sulfanyl]methyl}morpholin-2-yl]ethyl}-5-fluoropyridin-3-yl)-4-fluoro-β-(4-fluorophenyl)-L-phenylalaninamide] | 0.47 nM |
| N[C@H](C(=O)Nc1cncc(F)c1CC[C@@H]1CNC[C@@H](CSc2ccc(Cl)cc2)O1)C(c1ccc(F)cc1)c1ccc(F)cc1 [Example 104, (S)-2-amino-N-(4-(2-((2R,6S)-6-(((4-chlorophenyl)thio)methyl)morpholin-2-yl)ethyl)-5-fluoropyridin-3-yl)-3,3-bis(4-fluorophenyl)propanamide] | 0.28 nM |
| N[C@H](C(=O)Nc1cncc(F)c1CC[C@@H]1CNC[C@@H](COC(=O)N2CCOCC2)O1)C(c1ccc(F)cc1)c1ccc(F)cc1 [Example 105, {(2S,6R)-6-[2-(3-fluoro-5-{[4-fluoro-β-(4-fluorophenyl)-L-phenylalanyl]amino}pyridin-4-yl)ethyl]morpholin-2-yl}methyl morpholine-4-carboxylate] | 29 nM |
| COC(=O)N[C@H](C(=O)NCCCC1CNC[C@@H](CCc2ccc(Cl)cc2)O1)C(c1ccccc1)c1ccccc1 (stereo partly drawn) [Example 107, N-(3-{(6R)-6-[2-(4-chlorophenyl)ethyl]morpholin-2-yl}propyl)-Nα-(methoxycarbonyl)-β-phenyl-L-phenylalaninamide] | 1000 nM |
| COC(=O)N[C@H](C(=O)Nc1ccccc1CC[C@@H]1CNC[C@@H](COc2ccc(-n3ccnc3)cc2)O1)C(c1ccccc1)c1ccccc1 [Example 108, N-(2-{2-[(2R,6S)-6-{[4-(1H-imidazol-1-yl)phenoxy]methyl}morpholin-2-yl]ethyl}phenyl)-Nα-(methoxycarbonyl)-β-phenyl-L-phenylalaninamide] | 37 nM |
| COC(=O)N[C@H](C(=O)Nc1ccccc1CC[C@H]1CNC[C@@H](CS(=O)(=O)c2ccc(Cl)cc2)O1)C(c1ccccc1)c1ccccc1 [Example 109, N-(2-{2-[(2S,6S)-6-{[(4-chlorophenyl)sulfonyl]methyl}morpholin-2-yl]ethyl}phenyl)-Nα-(methoxycarbonyl)-β-phenyl-L-phenylalaninamide] | 770 nM |
| C#C[C@@H]1CNC[C@@H](CCc2ccccc2NC(=O)[C@@H](NC(=O)OC)C(c2ccccc2)c2ccccc2)O1 [Example 111, N-(2-{2-[(2R,6R)-6-ethynylmorpholin-2-yl]ethyl}phenyl)-Nα-(methoxycarbonyl)-β-phenyl-L-phenylalaninamide] | 580 nM |
| COC(=O)N[C@H](C(=O)Nc1ccccc1CC[C@@H]1CNC[C@@H](c2nc3cc(C)c(C)cc3[nH]2)O1)C(c1ccccc1)c1ccccc1 [Example 112, N-(2-{2-[(2R,6S)-6-(5,6-dimethyl-1H-benzimidazol-2-yl)morpholin-2-yl]ethyl}phenyl)-Nα-(methoxycarbonyl)-β-phenyl-L-phenylalaninamide] | 850 nM |
| COC(=O)N[C@H](C(=O)Nc1cccnc1CC[C@@H]1CNC[C@@H](COc2cccc(C#N)c2)O1)C(c1ccccc1)c1ccccc1 [Example 113, N-[2-(2-{(2R,6S)-6-[(3-cyanophenoxy)methyl]morpholin-2-yl}ethyl)pyridin-3-yl]-Nα-(methoxycarbonyl)-β-phenyl-L-phenylalaninamide] | 510 nM |
| COC(=O)N[C@H](C(=O)Nc1n[nH]cc1CC[C@@H]1CNC[C@@H](COc2ccc(S(C)(=O)=O)cc2)O1)C(c1ccccc1)c1ccccc1 [Example 115, Nα-(methoxycarbonyl)-N-(4-{2-[(2R,6S)-6-{[4-(methylsulfonyl)phenoxy]methyl}morpholin-2-yl]ethyl}-1H-pyrazol-3-yl)-β-phenyl-L-phenylalaninamide] | 370 nM |
| COC(=O)N[C@H](C(=O)Nc1ccccc1C[C@H]1CNC[C@@H](COc2ccc(C#N)cc2)O1)C(c1ccccc1)c1ccccc1 [Example 117, N-[2-({(2S,6S)-6-[(4-cyanophenoxy)methyl]morpholin-2-yl}methyl)phenyl]-Nα-(methoxycarbonyl)-β-phenyl-L-phenylalaninamide] | 180 nM |
| N[C@H](C(=O)Nc1cncc(F)c1CC[C@@H]1CNC[C@@H](CO)O1)C(c1ccc(F)cc1)c1ccc(F)cc1 [Example 120, 4-fluoro-N-(5-fluoro-4-{2-[(2R,6S)-6-(hydroxymethyl)morpholin-2-yl]ethyl}pyridin-3-yl)-β-(4-fluorophenyl)-L-phenylalaninamide] | 380 nM |
| N[C@H](C(=O)Nc1cccc(F)c1CC[C@@H]1CNC[C@@H](CSc2ccc(Cl)cc2)O1)C(c1ccc(F)cc1)c1ccc(F)cc1 [Example 121, N-(2-{2-[(2R,6S)-6-{[(4-chlorophenyl)sulfanyl]methyl}morpholin-2-yl]ethyl}-3-fluorophenyl)-4-fluoro-β-(4-fluorophenyl)-L-phenylalaninamide] | 5.2 nM |
| N[C@@H](C(=O)Nc1cncc(F)c1CC[C@@H]1CNC[C@@H](CSc2ccc(Cl)cc2)O1)C(c1ccc(F)cc1)c1ccc(F)cc1 [Example 122, N-(4-{2-[(2R,6S)-6-{[(4-chlorophenyl)sulfanyl]methyl}morpholin-2-yl]ethyl}-5-fluoropyridin-3-yl)-4-fluoro-β-(4-fluorophenyl)-D-phenylalaninamide] | 9 nM |
| N[C@H](C(=O)Nc1cncc(F)c1CC[C@@H]1CNC[C@@H](COC(=O)NCC(F)(F)F)O1)C(c1ccc(F)cc1)c1ccc(F)cc1 [Example 123, 4-fluoro-β-(4-fluorophenyl)-N-(5-fluoro-4-{2-[(2R,6S)-6-({[(2,2,2-trifluoroethyl)carbamoyl]oxy}methyl)morpholin-2-yl]ethyl}pyridin-3-yl)-L-phenylalaninamide] | 16 nM |
